What all share (format): functional, organism-based
One test has as its system Plasmodium vivax. As to the kind of experiment: Antiplasmodial activity against Plasmodium vivax.
Another test deals with Plasmodium malariae. As to the kind of experiment: Antimalarial activity as inhibition of schizont maturation against Plasmodium malariae Thai after 40 - 70 hrs.
The subject of a further test is Plasmodium falciparum. In words: Antiplasmodial activity against Plasmodium falciparum.

In brackets after ≈: the same amount, converted by molar mass.

The term IC50 denotes the midpoint of a concentration-inhibition curve.

Turning to `CCN(CC)CCCC(C)Nc1ccnc2cc(Cl)ccc12.Cl` (stereo not given), the values for the IC50 in the test with Plasmodium vivax and with Plasmodium malariae were 0.05 µg/mL and 0.0749 µg/mL, respectively.
As for `CCc1nc(N)nc(N)c1-c1ccc(Cl)cc1` [PYRIMETHAMINE], the IC50 with Plasmodium falciparum worked out at 4.08 µg/mL (≈ 16.4 µM); in the test on Plasmodium vivax it was 0.008 µg/mL (≈ 0.0322 µM); in the test with Plasmodium malariae, 0.00224 µg/mL (≈ 0.00901 µM).

For the origin of these results see ChEMBL document CHEMBL1152822, “Genetic analysis of the dihydrofolate reductase-thymidylate synthase gene from geographically diverse isolates of Plasmodium malariae” (Antimicrob Agents Chemother, 2007).
